The source of these data is BindingDB's records for doi:10.1021/jm00062a011 (Smithkline Beecham Pharmaceuticals, 1993).

pIC50: −log10 of the molar value. Structures can show the parent of a compound that is named as a salt.

The assay has as its target cGMP-specific 3',5'-cyclic phosphodiesterase PDE5 (Sus scrofa). In words: In vitro inhibition of PDE-V isolated from porcine pulmonary artery.
Take `c1ccc(COc2ccccc2-c2nc3ncccc3[nH]2)cc1` [2-(2-Benzyloxy-phenyl)-3H-imidazo[4,5-b]pyridine]: the pIC50 was 5.40.
In turn, `CCCCOc1ccccc1-c1nc2ncccc2[nH]1` [2-(2-Butoxy-phenyl)-3H-imidazo[4,5-b]pyridine] gave a pIC50 of 6.00. Against the preceding compound, the pIC50 is 0.60 log units higher.
`c1ccc(-c2nc3ncccc3[nH]2)c(OC2CCCC2)c1` [2-(2-Cyclopentyloxy-phenyl)-3H-imidazo[4,5-b]pyridine] showed a pIC50 of 4.82.
The value for `c1ccc(-c2nc3ncccc3[nH]2)c(OCC2CC2)c1` [2-(2-Cyclopropylmethoxy-phenyl)-3H-imidazo[4,5-b]pyridine] was 5.22.
With `CCOc1ccccc1-c1nc2ncccc2[nH]1` [2-(2-Ethoxy-phenyl)-3H-imidazo[4,5-b]pyridine] the figure was 4.74.
`CCCCCCOc1ccccc1-c1nc2ncccc2[nH]1` [2-(2-Hexyloxy-phenyl)-3H-imidazo[4,5-b]pyridine] showed a negative-log IC50 (pIC50) of 5.40. Against the preceding compound, the pIC50 is 0.66 log units higher.
Regarding `COc1ccccc1-c1nc2ccncc2[nH]1` [2-(2-Methoxy-phenyl)-3H-imidazo[4,5-c]pyridine; hydrochloride], the pIC50 was 4.38.
As for `CCCCCOc1ccccc1-c1nc2ncccc2[nH]1` [2-(2-Pentyloxy-phenyl)-3H-imidazo[4,5-b]pyridine], the negative-log IC50 (pIC50) was 6.00.
The compound `CCCCCOc1ccccc1-c1nc2ccncc2[nH]1` [2-(2-Pentyloxy-phenyl)-3H-imidazo[4,5-c]pyridine; hydrochloride] gave a pIC50 of 6.00.
For the compound `CCCOc1ccccc1-c1cn2cccnc2n1` [2-(2-Propoxy-phenyl)-imidazo[1,2-a]pyrimidine], the pIC50 is 4.48.
For `CCCSc1ccccc1-c1nc2ncccc2[nH]1` [2-(2-Propylsulfanyl-phenyl)-3H-imidazo[4,5-b]pyridine], the negative-log IC50 (pIC50) is 4.62.
`Oc1ccccc1-c1nc2ncccc2[nH]1` [2-(3H-Imidazo[4,5-b]pyridin-2-yl)-phenol] had a pIC50 of 4.43.
`COc1cc([S+](C)[O-])ccc1-c1nc2cnccc2[nH]1` (stereo unspecified) [2-(4-Methanesulfinyl-2-methoxy-phenyl)-1H-imidazo[4,5-c]pyridine(isomazole)]: the negative logarithm of the IC50 (pIC50) was 4.24.
`ClCCCOc1ccccc1-c1nc2ncccc2[nH]1` [2-[2-(3-Chloro-propoxy)-phenyl]-3H-imidazo[4,5-b]pyridine] gave a pIC50 of 5.70.
The compound `OCCCOc1ccccc1-c1nc2ncccc2[nH]1` [3-[2-(3H-Imidazo[4,5-b]pyridin-2-yl)-phenoxy]-propan-1-ol] showed a pIC50 of 4.62.
`CCCNc1ccccc1-c1nc2ncccc2[nH]1` [[2-(3H-Imidazo[4,5-b]pyridin-2-yl)-phenyl]-propyl-amine]: the pIC50 was 4.59.

The pIC50 is −log10 of the IC50, conventionally taken in molar units. Low readings indicate a high IC50, high ones a low IC50.
